Measurements: patent US20240158446A1, “CYCLIC COMPOUND HAVING SELECTIVE INHIBITORY ACTION ON KRAS OVER HRAS AND NRAS” (CHUGAI SEIYAKU KABUSHIKI KAISHA, priority 2021, published 2024)

Columns and labels:
[1] = molecular target: GDP-bound KRAS wild-type protein (Homo sapiens, UniProt P01116); test: Binding to KRAS by surface plasmon resonance (SPR), Single Cycle Kinetics; conditions: SPR Single Cycle Kinetics, GDP-bound KRAS wild-type protein, 1:1 binding model; read-out: KRAS KD
[2] = molecular target: GDP-bound NRAS wild-type protein (Homo sapiens, UniProt P01111); test: Binding to NRAS by surface plasmon resonance (SPR), Single Cycle Kinetics; conditions: SPR KD ratio NRAS/KRAS, class symbols
[3] = molecular target: GDP-bound HRAS wild-type protein (Homo sapiens, UniProt P01112); test: Binding to HRAS by surface plasmon resonance (SPR), Single Cycle Kinetics; conditions: SPR KD ratio HRAS/KRAS, class symbols
[4] = tested on: human lung cancer strain NCI-H441;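 further: cell proliferation inhibition after four days measured by CellTiter-Glo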

Sequence of GDP-bound NRAS wild-type protein (P01111 whole entry): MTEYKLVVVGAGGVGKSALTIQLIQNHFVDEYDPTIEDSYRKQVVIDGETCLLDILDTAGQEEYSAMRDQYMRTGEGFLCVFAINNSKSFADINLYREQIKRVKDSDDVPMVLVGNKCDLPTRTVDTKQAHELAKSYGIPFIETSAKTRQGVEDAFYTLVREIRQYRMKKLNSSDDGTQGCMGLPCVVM
Sequence of GDP-bound KRAS wild-type protein (P01116 whole entry): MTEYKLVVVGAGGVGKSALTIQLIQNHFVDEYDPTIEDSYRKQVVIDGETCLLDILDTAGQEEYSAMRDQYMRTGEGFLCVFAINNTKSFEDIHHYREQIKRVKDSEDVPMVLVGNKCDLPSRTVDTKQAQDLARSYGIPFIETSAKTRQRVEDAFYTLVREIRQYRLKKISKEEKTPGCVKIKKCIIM
Sequence of GDP-bound HRAS wild-type protein (P01112 whole entry): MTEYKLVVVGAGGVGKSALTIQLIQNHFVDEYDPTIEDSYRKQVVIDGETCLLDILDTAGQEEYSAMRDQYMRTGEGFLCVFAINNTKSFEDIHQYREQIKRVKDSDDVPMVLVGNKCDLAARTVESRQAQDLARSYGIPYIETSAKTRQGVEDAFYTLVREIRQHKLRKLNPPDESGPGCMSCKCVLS

Row | SMILES | Kd [1] | IC50 [4] | NRAS/KRAS (ratio of KD value with respect to GDP-bound NRAS wild-type protein to KD value with respect to KRAS) [2] | HRAS/KRAS (ratio of KD value with respect to GDP-bound HRAS wild-type protein to KD value with respect to KRAS) [3]
1 | CCO[C@@H]1C[C@H]2C(=O)NC3(CC(C)(C)C3)C(=O)N(C)[C@@H](C(CC)CC)C(=O)N(C)[C@H](C(=O)N(C)C)CC(=O)N(C)[C@@H](COC)C(=O)N[C@@H]([C@@H](C)CC)C(=O)N3CCC[C@H]3C(=O)N(C)[C@H]3C/C=C\CCN(C3=O)[C@@H](Cc3ccc(C(F)(F)F)cc3)C(=O)N(C)CC(=O)N[C@@H](CCc3ccc(Cl)c(Cl)c3)C(=O)N2C1 [PP2635] | 0.97 nM | 50.2 nM | AA (a compound having 20 or more is denoted as AA) | A (a compound having 10 or more and less than 20 is denoted as A)
2 | CCC[C@H]1C(=O)N[C@@H]([C@@H](C)CC)C(=O)N2CCC[C@H]2C(=O)N(C)[C@H]2C/C=C\CCN(C2=O)[C@@H](Cc2ccc(C(F)F)cc2)C(=O)N(C)CC(=O)N[C@@H](CCc2ccc(Cl)c(Cl)c2)C(=O)N2C[C@H](OCC)C[C@H]2C(=O)NC2(CC(C)(C)C2)C(=O)N(C)[C@@H](C(CC)CC)C(=O)N(C)[C@H](C(=O)N(C)C)CC(=O)N1C [PP2637] | 1 nM | 61.4 nM | AA (a compound having 20 or more is denoted as AA) | A (a compound having 10 or more and less than 20 is denoted as A)
3 | CCC[C@H]1C(=O)N[C@@H]([C@@H](C)CC)C(=O)N2CCC[C@H]2C(=O)N(C)[C@H]2C/C=C\CCN(C2=O)[C@@H](Cc2ccc(C)cc2)C(=O)N(C)CC(=O)N[C@@H](CCc2ccc(Cl)c(Cl)c2)C(=O)N2C[C@H](OCC)C[C@H]2C(=O)NC2(CC(C)(C)C2)C(=O)N(C)[C@@H](C(CC)CC)C(=O)N(C)[C@H](C(=O)N(C)C)CC(=O)N1C [PP2638] | 2.5 nM | 97 nM | AA (a compound having 20 or more is denoted as AA) | A (a compound having 10 or more and less than 20 is denoted as A)
4 | CCC[C@H]1C(=O)N[C@@H]([C@@H](C)CC)C(=O)N2CCC[C@H]2C(=O)N(C)[C@H]2C/C=C\CCN(C2=O)[C@@H](Cc2ccc(C(F)F)cc2)C(=O)N(C)CC(=O)N[C@@H](CCc2ccc(Cl)c(Cl)c2)C(=O)N2C[C@H](OC(C)C)C[C@H]2C(=O)NC2(CC(C)(C)C2)C(=O)N(C)[C@@H](C(CC)CC)C(=O)N(C)[C@H](C(=O)N(C)C)CC(=O)N1C [PP2640] | 1.4 nM | 84.1 nM | AA (a compound having 20 or more is denoted as AA) | A (a compound having 10 or more and less than 20 is denoted as A)
5 | CCC[C@H]1C(=O)N[C@@H]([C@@H](C)CC)C(=O)N(C)CC(=O)N(C)[C@H]2C/C=C\CCN(C2=O)[C@@H](Cc2ccc(C)cc2)C(=O)N(C)CC(=O)N[C@@H](CCc2ccc(Cl)c(Cl)c2)C(=O)N2C[C@H](OC3CCC3)C[C@H]2C(=O)NC2(CC(C)(C)C2)C(=O)N(C)[C@@H](C(CC)CC)C(=O)N(C)[C@H](C(=O)N(C)C)CC(=O)N1C [PP2644] | 0.81 nM | 75 nM | AA (a compound having 20 or more is denoted as AA) | A (a compound having 10 or more and less than 20 is denoted as A)
6 | CCC(CC)[C@H]1C(=O)N(C)[C@H](C(=O)N(C)C)CC(=O)N(C)[C@@H](COC)C(=O)N[C@@H]([C@@H](C)CC)C(=O)N2CCC[C@H]2C(=O)N(C)[C@H]2C/C=C\CCN(C2=O)[C@@H](Cc2ccc(C(F)(F)F)cc2)C(=O)N(C)CC(=O)N[C@@H](CCc2ccc(Cl)c(Cl)c2)C(=O)N2C[C@H](OC3CCC3)C[C@H]2C(=O)NC2(CC(C)(C)C2)C(=O)N1C [PP2645] | 1.1 nM | 86.7 nM | AA (a compound having 20 or more is denoted as AA) | A (a compound having 10 or more and less than 20 is denoted as A)
7 | CCC(CC)[C@H]1C(=O)N(C)[C@H](C(=O)N(C)C)CC(=O)N(C)[C@@H](COC)C(=O)N[C@@H]([C@@H](C)CC)C(=O)N(C)CC(=O)N(C)[C@H]2C/C=C\CCN(C2=O)[C@@H](Cc2ccc(C(F)F)cc2)C(=O)N(C)CC(=O)N[C@@H](CCc2ccc(Cl)c(Cl)c2)C(=O)N2C[C@H](OC3CCCC3)C[C@H]2C(=O)NC2(CC(C)(C)C2)C(=O)N1C [PP2649] | 0.4 nM | 61 nM | AA (a compound having 20 or more is denoted as AA) | A (a compound having 10 or more and less than 20 is denoted as A)

Now from value to compound, other results behind:

Row | Kd [1] | IC50 [4] | SMILES | NRAS/KRAS (ratio of KD value with respect to GDP-bound NRAS wild-type protein to KD value with respect to KRAS) [2] | HRAS/KRAS (ratio of KD value with respect to GDP-bound HRAS wild-type protein to KD value with respect to KRAS) [3]
8 | 0.68 nM | 45.4 nM | CC[C@H](C)[C@@H]1NC(=O)[C@H](COC)N(C)C(=O)C[C@@H](C(=O)N(C)C)N(C)C(=O)[C@H](C2CCCC2)N(C)C(=O)C2(CC(C)(C)C2)NC(=O)[C@@H]2C[C@@H](OC3CCCC3)CN2C(=O)[C@H](CCc2cc(F)c(C(F)(F)F)c(F)c2)NC(=O)CN(C)C(=O)[C@H](CC2CCC(F)(F)CC2)N2CC/C=C\C[C@@H](C2=O)N(C)C(=O)CN(C2CC2)C1=O [PP2634] | A (a compound having 10 or more and less than 20 is denoted as A) | A (a compound having 10 or more and less than 20 is denoted as A)
9 | 1.1 nM | 81.6 nM | CCC(CC)[C@H]1C(=O)N(C)[C@H](C(=O)N(C)C)CC(=O)N(C)[C@@H](COC)C(=O)N[C@@H]([C@@H](C)CC)C(=O)N2CCC[C@H]2C(=O)N(C)[C@H]2C/C=C\CCN(C2=O)[C@@H](Cc2ccc(C(F)(F)F)cc2)C(=O)N(C)CC(=O)N[C@@H](CCc2ccc(Cl)c(Cl)c2)C(=O)N2C[C@H](OC(C)C)C[C@H]2C(=O)NC2(CC(C)(C)C2)C(=O)N1C [PP2639] | AA (a compound having 20 or more is denoted as AA) | A (a compound having 10 or more and less than 20 is denoted as A)
10 | 2 nM | 98.6 nM | CCC[C@H]1C(=O)N[C@@H]([C@@H](C)CC)C(=O)N2CCC[C@H]2C(=O)N(C)[C@H]2C/C=C\CCN(C2=O)[C@@H](Cc2ccc(C)cc2)C(=O)N(C)CC(=O)N[C@@H](CCc2ccc(Cl)c(Cl)c2)C(=O)N2C[C@H](OC(C)C)C[C@H]2C(=O)NC2(CC(C)(C)C2)C(=O)N(C)[C@@H](C(CC)CC)C(=O)N(C)[C@H](C(=O)N(C)C)CC(=O)N1C [PP2641] | AA (a compound having 20 or more is denoted as AA) | A (a compound having 10 or more and less than 20 is denoted as A)
11 | 0.44 nM | 36.6 nM | CCC(CC)[C@H]1C(=O)N(C)[C@H](C(=O)N(C)C)CC(=O)N(C)[C@@H](COC)C(=O)N[C@@H]([C@@H](C)CC)C(=O)N(C)CC(=O)N(C)[C@H]2C/C=C\CCN(C2=O)[C@@H](Cc2ccc(C(F)(F)F)cc2)C(=O)N(C)CC(=O)N[C@@H](CCc2ccc(Cl)c(Cl)c2)C(=O)N2C[C@H](OC3CCC3)C[C@H]2C(=O)NC2(CC(C)(C)C2)C(=O)N1C [PP2642] | AA (a compound having 20 or more is denoted as AA) | A (a compound having 10 or more and less than 20 is denoted as A)
12 | 0.49 nM | 32.7 nM | CCC[C@H]1C(=O)N[C@@H]([C@@H](C)CC)C(=O)N(C)CC(=O)N(C)[C@H]2C/C=C\CCN(C2=O)[C@@H](Cc2ccc(C(F)F)cc2)C(=O)N(C)CC(=O)N[C@@H](CCc2ccc(Cl)c(Cl)c2)C(=O)N2C[C@H](OC3CCC3)C[C@H]2C(=O)NC2(CC(C)(C)C2)C(=O)N(C)[C@@H](C(CC)CC)C(=O)N(C)[C@H](C(=O)N(C)C)CC(=O)N1C [PP2643] | AA (a compound having 20 or more is denoted as AA) | A (a compound having 10 or more and less than 20 is denoted as A)
13 | 1.6 nM | 92.6 nM | CCC[C@H]1C(=O)N[C@@H]([C@@H](C)CC)C(=O)N2CCC[C@H]2C(=O)N(C)[C@H]2C/C=C\CCN(C2=O)[C@@H](Cc2ccc(C(F)F)cc2)C(=O)N(C)CC(=O)N[C@@H](CCc2ccc(Cl)c(Cl)c2)C(=O)N2C[C@H](OC3CCC3)C[C@H]2C(=O)NC2(CC(C)(C)C2)C(=O)N(C)[C@@H](C(CC)CC)C(=O)N(C)[C@H](C(=O)N(C)C)CC(=O)N1C [PP2646] | AA (a compound having 20 or more is denoted as AA) | A (a compound having 10 or more and less than 20 is denoted as A)
14 | 0.85 nM | 68.5 nM | CCC(CC)[C@H]1C(=O)N(C)[C@H](C(=O)N(C)C)CC(=O)N(C)[C@@H](COC)C(=O)N[C@@H]([C@@H](C)CC)C(=O)N(C)CC(=O)N(C)[C@H]2C/C=C\CCN(C2=O)[C@@H](Cc2ccc(C(F)(F)F)cc2)C(=O)N(C)CC(=O)N[C@@H](CCc2ccc(Cl)c(Cl)c2)C(=O)N2C[C@H](OC3CCCC3)C[C@H]2C(=O)NC2(CC(C)(C)C2)C(=O)N1C [PP2648] | A (a compound having 10 or more and less than 20 is denoted as A) | A (a compound having 10 or more and less than 20 is denoted as A)
